Experimental data as given in US4849425A, “Readily absorbable pharmaceutical composition” (Ishihara Sangyo Kaisha Ltd., priority 1985, dated 1989).
Converted amounts (≈) assume the structure as drawn.

Key:
[1] = Absorbability through the gut, oral, aqueous and non-aqueous dispersing solvents, plasma concentration in rats (Test Example 5); type: in vivo, Wistar male rats; conditions: rat; for absorption: oral; for concentration at 1 h / concentration at 3 h / concentration at 5 h / concentration at 24 h: plasma, po, 20 mg/kg
Description: 20 mg of Compound No. 3 was taken into a mortar, and 5 ml of an aqueous solution containing 1.7% of β-type cyclodextrin or 2% or 40% of dimethyl β-type cyclodextrin was added under stirring to obtain a suspension of Compound No. 3. The suspension was orally administered by an oral sonde to a group of three Wistar male rats (body weight: 200-250g). The dose of Compound No. 3 was 20 mg/kg rat body weight. Further, Compound No. 3 was likewise suspended in an aqueous solution containing 0.5% of sodium salt of carboxymethyl cellulose, and the suspension was used as the control ( in FIG. 3). After the administration, the blood was periodically sampled, and the plasma was separated. After the removal of protein by acetonitrile, Compound No. 3 in the plasma was quantitatively analyzed by a high speed liquid chromatography as shown in Test Example 1.
The changes with time of the concentration of Compound No. 3 in the plasma after the oral administration were studied in the same manner as in Test Example 3 by using an aqueous solution of 10% (weight/volume) hydroxypropyl cellulose (HPC-L, manufactured by Nippon Soda Co., Ltd.), 2.5% (weight/volume) methyl cellulose (Metrose SM 15,manufactured by Shin-Etsu Chemical Co., Ltd.), 10% (weight/volume) hydroxypropylmethyl cellulose (Metrose TC5R, manufactured by Shin-Etsu Chemical Co., Ltd.), 2.5% (weight/volume) sodium salt of carboxymethyl cellulose (manufactured by Wako Junyaku K.K.), 10% (weight/volume) sucrose fatty acid ester (P1570, manufactured by Hishito K.K.) or 10% (weight/volume) pluronic F 68 (manufactured by Asahi Denka Kogyo K.K.), as an aqueous dispersing solvent for Compound No. 3, and medium-chain length fatty acid triglyceride (ODO, manufactured by Nisshin Seiyu K.K.), ODO containing 5% (weight/volume) sucrose fatty acid ester (S-370F, manufactured by Hishito K.K.), or a refined soybean oil (The Green Cross Corporation) or refined sesame oil (Takemoto Yushi K.K.) containing 5% (weight/volume) of S-370F, as a non-aqueous dispersing solvent, and an aqueous solution of 50% (weight/volume) dimethyl β-type cyclodextrin and an aqueous solution of 0.5% (weight/volume) sodium carboxymethyl cellulose, as the control.

[2] = Solubility of Compound No. 3 in aqueous cyclodextrin solutions or polyethylene glycol 400 at 25° C. (Test Example 2); type: physicochemical
Description: 0.1 μmol of Compound No. 1 or No. 2 was added to 1 ml of an aqueous solution of each cyclodextrin with a concentration of from 0 to 8 mM, and the mixture was shaken at 25° C. for 100 hours. After completion of the shaking, the mixture was filtered through a millipore filter of 0.45 μm to obtain a filtrate.
Separation column: As the packing material, octadecylated silica gel was filled in a stainless steel tube having an internal diameter of from 0.39 to 4.6 mm and a length of from 100 to 300 mm.
Column temperature: 30° C.
Mobile phase: Mixture of acetonitrile-water (the mixing ratio was adjusted so that the eluting time of the drug becomes from 5 to 10 minutes).
Wave length for detection: 265 nm
7.5 mg of […]. was added to 1 ml of an aqueous solution of each cyclodextrin at various concentrations or to 1 ml of polyethylene glycol 400, and the solubility of Compound No. 3 at 25° C. was obtained in the same manner as the Test Example b 1.

L-1210 leukemia cells = experiment: Antitumour activity against intraperitoneally inoculated L-1210 leukemia, oral administration (Test Example 9); type: in vivo, BDF1 mice
From the text: The pharmacological activities of the pharmaceutical compositions of the present invention were studied.
To BDF1 mice (male, […]), L-1210 leukemia cells were intraperitoneally inoculated in an amount of 1×10^6 cells/mouse. One day later and 4 days later, a test drug was orally administered. […]

[3] = 0.5% (w/v) sodium salt of carboxymethyl cellulose (control), oral 20 mg/kg
[4] = 2.5% (w/v) methyl cellulose, oral 20 mg/kg
[5] = 2.5% (w/v) sodium salt of carboxymethyl cellulose, oral 20 mg/kg
[6] = 5% (w/v) Pluronic F31/ODO, oral 20 mg/kg
[7] = 5% (w/v) sucrose fatty acid ester/ODO, oral 20 mg/kg
[8] = 5% (w/v) sucrose fatty acid ester/refined sesame oil, oral 20 mg/kg
[9] = 5% (w/v) sucrose fatty acid ester/refined soybean oil, oral 20 mg/kg
[10] = 10% (w/v) Pluronic F68, oral 20 mg/kg
[11] = 10% (w/v) hydroxypropyl cellulose, oral 20 mg/kg
[12] = 10% (w/v) hydroxypropylmethyl cellulose, oral 20 mg/kg
[13] = 10% (w/v) sucrose fatty acid ester, oral 20 mg/kg
[14] = 50% (w/v) dimethyl β-type cyclodextrin, oral 20 mg/kg
[15] = medium-chain length fatty acid triglyceride (ODO), oral 20 mg/kg

With O=C(NC(=O)c1ccccc1[N+](=O)[O-])Nc1ccc(Oc2ncc(Br)cn2)c(Cl)c1 [Compound No. 3, N-(2-nitrobenzoyl)-N'-[4-(5-bromo-2-pyrimidinyloxy)-3-chlorophenyl]urea] the absorption ([1]; 50% (w/v) dimethyl β-type cyclodextrin, among the aqueous dispersing solvents) was “highest absorption”, the absorption ([1]; ODO containing 5% (w/v) Pluronic F32) was “high absorption” and the concentration at 1 h [1, 3] was 30 ng/mL. It also gave a concentration at 3 h [1, 3] of 100 ng/mL, a concentration at 5 h [1, 3] of 150 ng/mL and a concentration at 24 h [1, 3] of 10 ng/mL. It also gave a concentration at 1 h [1, 4] of 60 ng/mL, a concentration at 3 h [1, 4] of 110 ng/mL and a concentration at 5 h [1, 4] of 110 ng/mL. The concentration at 24 h [1, 4] was 30 ng/mL, the concentration at 1 h [1, 5] was 40 ng/mL and the concentration at 3 h [1, 5] was 110 ng/mL. The concentration at 5 h [1, 5] was 90 ng/mL, the concentration at 24 h [1, 5] was 90 ng/mL and the concentration at 1 h [1, 6] was 100 ng/mL. The concentration at 3 h [1, 6] was 200 ng/mL, the concentration at 5 h [1, 6] was 220 ng/mL and the concentration at 24 h [1, 6] was 470 ng/mL. The concentration at 1 h [1, 7] was 60 ng/mL, the concentration at 3 h [1, 7] was 180 ng/mL and the concentration at 5 h [1, 7] was 200 ng/mL. It also gave a concentration at 24 h [1, 7] of 220 ng/mL, a concentration at 1 h [1, 8] of 140 ng/mL and a concentration at 3 h [1, 8] of 490 ng/mL. It also gave a concentration at 5 h [1, 8] of 570 ng/mL, a concentration at 24 h [1, 8] of 370 ng/mL and a concentration at 1 h [1, 9] of 120 ng/mL. For the same molecule, the concentration at 3 h [1, 9] was 500 ng/mL, the concentration at 5 h [1, 9] was 550 ng/mL and the concentration at 24 h [1, 9] was 390 ng/mL. It also gave a concentration at 1 h [1, 10] of 110 ng/mL, a concentration at 3 h [1, 10] of 190 ng/mL and a concentration at 5 h [1, 10] of 230 ng/mL. For the same molecule, the concentration at 24 h [1, 10] was 120 ng/mL, the concentration at 1 h [1, 11] was 50 ng/mL and the concentration at 3 h [1, 11] was 120 ng/mL. For the same molecule, the concentration at 5 h [1, 11] was 110 ng/mL, the concentration at 24 h [1, 11] was 40 ng/mL and the concentration at 1 h [1, 12] was 140 ng/mL. For the same molecule, the concentration at 3 h [1, 12] was 310 ng/mL, the concentration at 5 h [1, 12] was 280 ng/mL and the concentration at 24 h [1, 12] was 100 ng/mL. The concentration at 1 h [1, 13] was 40 ng/mL, the concentration at 3 h [1, 13] was 180 ng/mL and the concentration at 5 h [1, 13] was 180 ng/mL. The concentration at 24 h [1, 13] was 240 ng/mL, the concentration at 1 h [1, 14] was 280 ng/mL and the concentration at 3 h [1, 14] was 580 ng/mL. It also gave a concentration at 5 h [1, 14] of 490 ng/mL, a concentration at 24 h [1, 14] of 360 ng/mL and a concentration at 1 h [1, 15] of 120 ng/mL. The concentration at 3 h [1, 15] was 170 ng/mL, the concentration at 5 h [1, 15] was 210 ng/mL and the concentration at 24 h [1, 15] was 240 ng/mL. The absorption ([1]; refined soybean oil or refined sesame oil containing 5% (w/v) sucrose fatty acid ester, among the non-aqueous dispersing solvents) was “high absorption almost equal to dimethyl β-type cyclodextrin”, the solubility ([2]; aqueous dimethyl α-type cyclodextrin, dimethyl α-type cyclodextrin 17.5 mg/ml, aqueous) was 0.294 µg/mL (≈ 0.597 µM) and the solubility ([2]; aqueous dimethyl β-type cyclodextrin, dimethyl β-type cyclodextrin 20.0 mg/ml, aqueous) was 24.1 µg/mL (≈ 48.9 µM). For the same molecule, the solubility ([2]; aqueous dimethyl β-type cyclodextrin, dimethyl β-type cyclodextrin 140 mg/ml, aqueous) was 5180 µg/mL (≈ 10500 µM), the solubility ([2]; aqueous dimethyl β-type cyclodextrin, dimethyl β-type cyclodextrin 500 mg/ml, aqueous) was 7440 µg/mL (≈ 15100 µM) and the solubility ([2]; aqueous solution, no additives, aqueous solution containing no additives) was 0.024 µg/mL (≈ 0.0487 µM). The solubility ([2]; aqueous trimethyl β-type cyclodextrin, trimethyl β-type cyclodextrin 21.4 mg/ml, aqueous) was 1 µg/mL (≈ 2.03 µM), the solubility ([2]; aqueous trimethyl β-type cyclodextrin, trimethyl β-type cyclodextrin 100 mg/ml, aqueous) was 13.4 µg/mL (≈ 27.2 µM) and the solubility ([2]; aqueous trimethyl β-type cyclodextrin, trimethyl β-type cyclodextrin 200 mg/ml, aqueous) was 30.4 µg/mL (≈ 61.7 µM). For the same molecule, the solubility ([2]; aqueous α-type cyclodextrin 14.6 mg/ml, α-type cyclodextrin 14.6 mg/ml, aqueous) was 0.164 µg/mL (≈ 0.333 µM), the solubility ([2]; aqueous β-type cyclodextrin 17.0 mg/ml, β-type cyclodextrin 17.0 mg/ml, aqueous) was 1.64 µg/mL (≈ 3.33 µM) and the solubility ([2]; polyethylene glycol 400, organic solvent or mixture, polyethylene glycol 400, 100%) was 7500 µg/mL (≈ 15200 µM). The antitumour activities (L-1210 leukemia cells; only when administered together with the substance specified in the invention) was “distinctly observed”, the T/C (L-1210 leukemia cells; polyethylene glycol 400 + substrate + Compound No. 3, 6.25 mg/kg) was 120% and the T/C (L-1210 leukemia cells; polyethylene glycol 400 + substrate + Compound No. 3, 12.5 mg/kg) was 134%. For the same molecule, the T/C (L-1210 leukemia cells; polyethylene glycol 400 + substrate + Compound No. 3, 25 mg/kg) was 183%, the T/C (L-1210 leukemia cells; polyethylene glycol 400 + substrate + Compound No. 3, 50 mg/kg) was 95% and the antitumour activities (L-1210 leukemia cells; polyethylene glycol 400 absent) was “no antitumour activities were observed”. The T/C (L-1210 leukemia cells; substrate + Compound No. 3 (no polyethylene glycol 400), 6.25 mg/kg) was 102%, the T/C (L-1210 leukemia cells; substrate + Compound No. 3 (no polyethylene glycol 400), 12.5 mg/kg) was 102% and the T/C (L-1210 leukemia cells; substrate + Compound No. 3 (no polyethylene glycol 400), 25 mg/kg) was 101%. The T/C (L-1210 leukemia cells; substrate + Compound No. 3 (no polyethylene glycol 400), 50 mg/kg) was 103%.
